How the values were obtained:
CYP1A2 = target: T1, CYP1A2 (Homo sapiens, UniProt P05177); experiment: CYP450 inhibition at 10 μM; type: biochemical; settings: 1A2, substrate Phenacetin
T1 sequence (P05177 1-516): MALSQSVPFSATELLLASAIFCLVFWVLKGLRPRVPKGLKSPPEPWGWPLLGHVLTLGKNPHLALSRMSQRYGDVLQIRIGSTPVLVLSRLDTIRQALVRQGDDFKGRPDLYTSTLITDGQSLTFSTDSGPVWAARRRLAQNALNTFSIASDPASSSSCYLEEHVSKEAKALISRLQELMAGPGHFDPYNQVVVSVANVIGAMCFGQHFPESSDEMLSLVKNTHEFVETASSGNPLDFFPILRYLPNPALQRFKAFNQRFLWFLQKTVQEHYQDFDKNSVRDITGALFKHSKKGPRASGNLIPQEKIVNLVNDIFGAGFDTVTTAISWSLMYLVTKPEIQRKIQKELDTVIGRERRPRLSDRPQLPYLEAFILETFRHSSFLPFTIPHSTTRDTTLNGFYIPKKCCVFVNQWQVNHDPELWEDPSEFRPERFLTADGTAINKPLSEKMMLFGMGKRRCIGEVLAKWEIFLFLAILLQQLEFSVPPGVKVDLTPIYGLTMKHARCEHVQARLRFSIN

CYP2C19 = CYP2C19 (Homo sapiens, UniProt P33261); experiment: in vitro; settings: probe Mephenytoin
CYP2D6 = CYP2D6 (Homo sapiens, UniProt P10635); experiment: in vitro
CYP2C9 = CYP2C9 (Homo sapiens, UniProt P11712); experiment: in vitro
Chain of CYP2C9 (P11712 whole entry): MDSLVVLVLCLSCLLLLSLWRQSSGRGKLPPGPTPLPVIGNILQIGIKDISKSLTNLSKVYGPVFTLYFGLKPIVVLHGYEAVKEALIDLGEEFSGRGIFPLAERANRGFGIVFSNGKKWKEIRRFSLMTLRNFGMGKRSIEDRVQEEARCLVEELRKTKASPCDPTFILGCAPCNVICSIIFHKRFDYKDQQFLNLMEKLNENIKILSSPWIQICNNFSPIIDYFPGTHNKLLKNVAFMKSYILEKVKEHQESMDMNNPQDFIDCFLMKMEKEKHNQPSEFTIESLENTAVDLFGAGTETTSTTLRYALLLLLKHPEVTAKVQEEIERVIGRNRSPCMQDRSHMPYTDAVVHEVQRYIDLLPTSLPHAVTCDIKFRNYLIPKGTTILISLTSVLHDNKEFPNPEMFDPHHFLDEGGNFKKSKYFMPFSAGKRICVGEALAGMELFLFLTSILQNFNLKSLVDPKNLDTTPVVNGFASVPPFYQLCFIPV

Chain of CYP2C19 (P33261 whole entry): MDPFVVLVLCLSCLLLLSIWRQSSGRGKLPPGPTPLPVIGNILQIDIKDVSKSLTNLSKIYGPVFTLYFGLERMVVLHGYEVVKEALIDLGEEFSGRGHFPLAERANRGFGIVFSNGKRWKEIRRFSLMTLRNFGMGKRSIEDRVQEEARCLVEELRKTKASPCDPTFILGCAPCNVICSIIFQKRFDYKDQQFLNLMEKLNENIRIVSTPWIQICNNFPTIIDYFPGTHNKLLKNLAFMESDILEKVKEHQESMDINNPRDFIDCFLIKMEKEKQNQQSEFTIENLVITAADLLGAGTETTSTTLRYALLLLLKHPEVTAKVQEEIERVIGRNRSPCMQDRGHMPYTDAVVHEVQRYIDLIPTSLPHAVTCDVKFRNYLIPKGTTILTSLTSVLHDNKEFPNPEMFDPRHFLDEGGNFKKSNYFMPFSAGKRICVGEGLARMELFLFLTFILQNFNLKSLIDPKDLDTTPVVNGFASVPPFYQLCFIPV
Chain of CYP2D6 (P10635 whole entry): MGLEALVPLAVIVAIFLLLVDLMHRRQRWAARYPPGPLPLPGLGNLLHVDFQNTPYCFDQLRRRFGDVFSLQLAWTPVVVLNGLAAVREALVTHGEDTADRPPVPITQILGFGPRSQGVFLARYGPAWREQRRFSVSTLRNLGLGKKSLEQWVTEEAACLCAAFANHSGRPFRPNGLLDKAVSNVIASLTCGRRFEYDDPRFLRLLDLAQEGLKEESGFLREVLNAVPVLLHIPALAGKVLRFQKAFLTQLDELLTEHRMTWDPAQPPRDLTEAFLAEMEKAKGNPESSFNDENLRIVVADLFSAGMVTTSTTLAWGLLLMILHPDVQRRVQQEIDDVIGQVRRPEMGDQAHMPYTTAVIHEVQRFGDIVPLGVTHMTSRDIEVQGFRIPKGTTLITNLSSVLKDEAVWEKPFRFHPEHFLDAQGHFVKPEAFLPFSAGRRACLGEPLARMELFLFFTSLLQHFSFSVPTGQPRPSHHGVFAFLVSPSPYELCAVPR

COCCCC/C(=N\OCCN)c1ccc(C(F)(F)F)cc1 [Fluvoxamine, reference compound]
inhibition at 10 µM (CYP1A2): 96.6%

COc1ccc2[nH]c([S+]([O-])Cc3ncc(C)c(OC)c3C)nc2c1 (stereo not shown) [Omeprazole, reference compound]
inhibition at 10 µM (CYP2C19): 68.2%

C=C[C@H]1C[N@@]2CC[C@H]1C[C@@H]2[C@@H](O)c1ccnc2ccc(OC)cc12 [Quinidine, reference compound]
inhibition at 1 μM (CYP2D6): 55.8%

Nc1ccc(S(=O)(=O)Nc2ccnn2-c2ccccc2)cc1 [Sulfaphenazole, reference compound]
inhibition at 10 µM (CYP2C9): 95.3%

Source: US20170050966A1, “INHIBITING THE TRANSIENT RECEPTOR POTENTIAL A1 ION CHANNEL” (HYDRA BIOSCIENCES, INC., priority 2014, published 2017)
